Measurements as given in ChEMBL document CHEMBL1141107, “A novel series of non-carboxylic acid, non-hydantoin inhibitors of aldose reductase with potent oral activity in diabetic rat models: 6-(5-chloro-3-methylbenzofuran-2-sulfonyl)-2H-pyridazin-3-one and congeners” (J Med Chem, 2005).

Experiments:
Rattus norvegicus [1] = species on record: Rattus norvegicus; assay: Inhibition of sorbitol accumulation in diabetic rat by acute test; type: functional
Rattus norvegicus [2] = species on record: Rattus norvegicus; assay: Inhibition of sorbitol accumulation in diabetic rat by chronic test; type: functional
Rattus norvegicus [3] = assay: Inhibition of sorbitol accumulation in diabetic rat by chronic test dosed at 3 mg/kg; type: functional
Rattus norvegicus [4] = assay: Inhibition of sorbitol accumulation in diabetic rat by acute test dosed at 3 mg/kg; type: functional
Rattus norvegicus [5] = assay: Inhibition of fructose accumulation in diabetic rat after oral gavage administration incubated at RT for 60 minutes in pH 4.5 by acute test dosed at 3 mg/kg; type: functional; conditions: 1 h
Rattus norvegicus [6] = assay: Inhibition of fructose accumulation in diabetic rat after oral gavage administration, pH 4.5 by chronic test dosed at 10 mg/kg; type: functional
Rattus norvegicus [7] = species on record: Rattus norvegicus; assay: Dose required for sorbitol accumulation in diabetic rat by chronic test; type: functional
Rattus norvegicus [8] = species on record: Rattus norvegicus; assay: Dose required for inhibition of sorbitol accumulation in diabetic rat by acute test; type: functional
Rattus norvegicus [9] = assay: Inhibition of sorbitol accumulation in diabetic rat by chronic test dosed at 10 mg/kg; type: functional
[10] = target: Aldo-keto reductase family 1 member B1 (Homo sapiens, UniProt P15121); assay: In vitro inhibitroy concentration against Aldose reductase incubated at 24 degree C for 15 minutes in pH 7.0
Rattus norvegicus [11] = assay: Inhibition of sorbitol accumulation in diabetic rat by chronic test dosed at 1 mg/kg; type: functional
Rattus norvegicus [12] = assay: Dose required for fructose accumulation in diabetic rat after oral gavage administration incubated at RT for 60 minutes in pH 4.5 by acute test; type: functional
Rattus norvegicus [13] = assay: Inhibition of fructose accumulation in diabetic rat after oral gavage administration, pH 4.5 by chronic test dosed at 1 mg/kg; type: functional
Rattus norvegicus [14] = assay: Inhibition of fructose accumulation in diabetic rat after oral gavage administration, pH 4.5 by chronic test dosed at 3 mg/kg; type: functional
Rattus norvegicus [15] = assay: Inhibition of sorbitol accumulation in diabetic rat by acute test dosed at 1 mg/kg; type: functional
Rattus norvegicus [16] = assay: Inhibition of sorbitol accumulation in diabetic rat by acute test dosed at 10 mg/kg; type: functional
Rattus norvegicus [17] = assay: Inhibition of fructose accumulation in diabetic rat after oral gavage administration incubated at RT for 60 minutes in pH 4.5 by acute test dosed at 10 mg/kg; type: functional; conditions: 1 h
Rattus norvegicus [18] = assay: Inhibition of fructose accumulation in diabetic rat after oral gavage administration incubated at RT for 60 minutes in pH 4.5 by acute test dosed at 1 mg/kg; type: functional; conditions: 1 h
Rattus norvegicus [19] = assay: Inhibition of sorbitol accumulation in diabetic rat by acute test dosed at 60 mg/kg; type: functional
[20] = Maximum plasma concentration in rat was determined; type: ADME, organism-based
Rattus norvegicus [21] = assay: Dose required for fructose accumulation in diabetic rat after oral gavage administration incubated at RT for 60 minutes in pH 4.5 by acute test; conditions: 1 h
Rattus norvegicus [22] = assay: Dose required for fructose accumulation in diabetic rat after oral gavage administration, pH 4.5 by chronic test; type: functional
Rattus norvegicus [23] = species on record: Rattus norvegicus; assay: Dose required for sorbitol accumulation in diabetic rat by chronic test
Rattus norvegicus [24] = assay: Inhibition of fructose accumulation in diabetic rat after oral gavage administration incubated at RT for 60 minutes in pH 4.5 by acute test dosed at 25 mg/kg; type: functional; conditions: 1 h
Rattus norvegicus [25] = assay: Inhibition of sorbitol accumulation in diabetic rat by acute test dosed at 25 mg/kg; type: functional
Rattus norvegicus [26] = assay: Dose required for fructose accumulation in diabetic rat after oral gavage administration incubated at RT for 60 minutes in pH 4.5 by acute; type: functional
Rattus norvegicus [27] = assay: Inhibition of sorbitol accumulation in diabetic rat by acute test dosed at 50 mg/kg; type: functional
Rattus norvegicus [28] = assay: Inhibition of fructose accumulation in diabetic rat after oral gavage administration incubated at RT for 60 minutes in pH 4.5 by acute test dosed at 50 mg/kg; type: functional; conditions: 1 h

| SMILES | inhibition in vivo at 3 mg/kg (Rattus norvegicus [3]) | inhibition in vivo at 3 mg/kg (Rattus norvegicus [4]) | inhibition in vivo at 3 mg/kg (Rattus norvegicus [5]) | inhibition in vivo at 10 mg/kg (Rattus norvegicus [6]) | ED50 (Rattus norvegicus [8]) | inhibition in vivo at 10 mg/kg (Rattus norvegicus [9]) | IC50 [10] | inhibition in vivo at 1 mg/kg (Rattus norvegicus [11]) | ED50 (Rattus norvegicus [12]) | inhibition in vivo at 1 mg/kg (Rattus norvegicus [13]) | inhibition in vivo at 3 mg/kg (Rattus norvegicus [14]) | inhibition in vivo at 1 mg/kg (Rattus norvegicus [15]) | inhibition in vivo at 10 mg/kg (Rattus norvegicus [16]) | inhibition in vivo at 10 mg/kg (Rattus norvegicus [17]) | other results |
| --- | --- | --- | --- | --- | --- | --- | --- | --- | --- | --- | --- | --- | --- | --- | --- |
| O=S(=O)(c1ccccc1)c1ccc(S(=O)(=O)c2ccccc2)nn1 | – | – | – | – | – | – | – | – | – | – | – | – | – | – | Inhibition (Rattus norvegicus [1]): 58%; Inhibition (Rattus norvegicus [2]): 50% |
| Cc1c(S(=O)(=O)c2ccc(O)nn2)oc2ccc(F)cc12 | 86% | 66% | 42% | 90% | 1.2 mg/kg | 100% | 3 nM | 52% | 5.8 mg/kg | 17% | 64% | 47% | 84% | 62% | ED50 (Rattus norvegicus [7]): 1 mg/kg; inhibition in vivo at 1 mg/kg (Rattus norvegicus [18]): 11% |
| O=c1ccc(S(=O)(=O)Cc2ccccc2)n[nH]1 | – | – | – | – | – | – | 600 nM | – | – | – | – | – | – | – | inhibition in vivo at 60 mg/kg (Rattus norvegicus [19]): 73% |
| Cc1c(S(=O)(=O)c2ccc(=O)[nH]n2)oc2ccc(Cl)cc12 | – | – | – | – | 0.2 mg/kg | – | 1 nM | – | 0.8 mg/kg | – | – | – | – | – | Cmax [20]: 9000 ng/mL |
| Cc1c(S(=O)(=O)c2ccc(O)nn2)oc2ccc(C(F)(F)F)cc12 | 95% | 91% | 79% | 100% | 1.3 mg/kg | 102% | 5 nM | 75% | – | 54% | 81% | 43% | 101% | – | ED50 (Rattus norvegicus [21]): 2 mg/kg; ED50 (Rattus norvegicus [22]): 1 mg/kg; ED50 (Rattus norvegicus [23]): < 1 mg/kg |
| O=S(=O)(c1ccccc1)c1ccc(O)nn1 | – | – | – | – | 15 mg/kg | – | – | – | – | – | – | – | 40% | 14% | inhibition in vivo at 25 mg/kg (Rattus norvegicus [24]): 49%; inhibition in vivo at 25 mg/kg (Rattus norvegicus [25]): 73%; ED50 (Rattus norvegicus [26]): 25 mg/kg; inhibition in vivo at 50 mg/kg (Rattus norvegicus [27]): 95%; inhibition in vivo at 50 mg/kg (Rattus norvegicus [28]): 74% |
